Patent publication US9422254B2, “Methoxyacrylate-based fungicide and methods for preparing and using the same” (priority 2008, dated 2016)

What was measured:
Ustilaginoidea virens = experiment: microbe, parasite or virus in culture; assay type: cell-based
Helminthosporum maydis = experiment: organism not typed; assay type: cell-based
Bipolaris sorokiniana = experiment: microbe, parasite or virus in culture; assay type: cell-based; settings: read-out: Inhibition rate (%)
melon powdery mildew = experiment: Field efficacy trial of emulsifier concentrate 1, melon powdery mildew; assay type: in vivo
Protocol: To a beaker (1000 mL), 50 g (100% basis) of the compound of Formula (I), 150 g of DMF, and 50 g of acetone were added and stirred for dissolution. To the solution, 25 g of pesticide emulsifier No. 500 and 50 g of Tween 80, 20 g of epoxidized soybean oil, and […] of toluene were added. Thus, the emulsifier concentrate 1 having 5 wt. % of the compound of Formula (I) was obtained and further packed.
On the basis of indoor activity evaluation, field efficacy trials of the compound of Formula (I) on cucumber downy mildew, cucumber powdery mildew, and melon powdery mildew were conducted.

[1] = system: Rhizoctonia solani (rice sheath blight); experiment: microbe, parasite or virus in culture; assay type: cell-based; settings: read-out: Inhibition rate (%)
[2] = system: Cucumber brown spot (strain SDHGHB060509); experiment: In vivo micro-screening assay
Excerpt: 3. In Vivo Micro-Screening Assay

[3] = system: Colletouichum coccodes. Hughas; experiment: In vitro inhibition, pathogens from tropical plants; assay type: cell-based
Protocol: (§1) 5 wt % formulation of the active compound of Formula (I) was prepared into a solution (300 mg/L). To a sterilized Erlenmeyer flask, 2 mL of the solution and 18 mL of PDA culture medium (50° C.) were added. The mixture was shaken uniformly and dumped into two dishes whose diameter was 9 cm to yield two toxic PDA culture mediums having a concentration of 30 mg/L. Various cultured pathogens were punched at the edge of colony by a puncher having a diameter of 5 mm respectively, and the obtained pieces were transferred to the center of the toxic PDA culture medium by an inoculating needle and cultured in an incubator at 25° C. Repeat the above steps. According to the growth status of CK colony, the colony diameter of pathogens was measured by crossing method with a caliper and thereby a corrected inhibition percentage was calculated.
(§2) For each colony, diameter was measured twice by crossing method and the average was practicable. The colony growth inhibition rate was calculated as follows: Colony growth inhibition rate %=(diameter of CK colony−diameter of target colony)×100/diameter of CK colony
(§3) Following the above method, as targets 17 pathogens originated from tropical plants were tested. The pathogens were Rhizopus sp., Aspergillus, Colletotrichum gloeosporioides Penz, Banana Fusarium wilt, Colletouichum coccodes, Hughas, B. heveas, Cucumber mosaic virusstrain banana, Banana Sigatoka Leaf Spot Disease, Colletotrichum gloeosporioides, Colletotrichum musae (Berk & Curt) Arx, Botryodiplodia theobromae, Cladosporium cucumerinum Ellis et Arthur, Periconia hevenae, Colletotrichum gloeosporioides, B. cinerea, Diplodia natalensis, and Curvularia.

[4] = system: Botryodiplodia theobromae; experiment: as above; assay type: cell-based; settings: Lasiodiplodia theobromae
Protocol: as §1, §2, §3

Rhizopus sp. = experiment: as above; assay type: cell-based
Protocol: as §1, §2, §3

[5] = system: Cladosporium cucumerinum Ellis et Arthur; experiment: as above; assay type: cell-based
Protocol: as §1, §2, §3

B. cinerea = experiment: as above; assay type: cell-based; settings: Botrytis cinerea
Protocol: as §1, §2, §3

Diplodia natalensis = experiment: as above; assay type: cell-based
Protocol: as §1, §2, §3

Banana Fusarium wilt = experiment: as above; assay type: cell-based
Protocol: as §1, §2, §3

[6] = system: Mice Polychromatic Erythrocytes; experiment: Micronucleus Test of Mice Polychromatic Erythrocytes; assay type: in vivo
Protocol: The toxicological indexes of the compound were tested following the standard GB15670-1995 “Toxicological test methods of pesticides for registration” by Tongji Medical College, Huazhong University of Science and Technology.

Diaporthe medusae = experiment: microbe, parasite or virus in culture; assay type: cell-based
Fusarium oxysporum = experiment: microbe, parasite or virus in culture; assay type: cell-based; settings: read-out: Inhibition rate (%)
[7] = 12.5 mg/L, 7th day after first administration
[8] = 12.5 mg/L, 7th day after second administration
[9] = 12.5 mg/L, 14th day after second administration
[10] = 25 mg/L, 7th day after first administration
[11] = 25 mg/L, 7th day after second administration
[12] = 25 mg/L, 14th day after second administration
[13] = 50 mg/L, 7th day after first administration
[14] = 50 mg/L, 7th day after second administration
[15] = 50 mg/L, 14th day after second administration
[16] = 100 mg/L, 7th day after first administration
[17] = 100 mg/L, 7th day after second administration
[18] = 100 mg/L, 14th day after second administration
[19] = 0.1 mg/L, read-out: Inhibition rate (%)
[20] = 5 mg/L, read-out: Inhibition rate (%)
[21] = 15 mg/L, read-out: Inhibition rate (%)
[22] = 25 mg/L, read-out: Inhibition rate (%)
[23] = 0.5 mg/L, read-out: Inhibition rate (%)
[24] = 1 mg/L, read-out: Inhibition rate (%)
[25] = 10 mg/L, read-out: Inhibition rate (%)
[26] = 20 mg/L, read-out: Inhibition rate (%)

CO/C=C(/C(=O)OC)c1ccccc1CSc1nc2cc(OC)ccc2s1 [Compound of Formula (I), (E)-methyl 3-methoxy-2-(2-((5-methoxy-benzothiazol-2-ylthio)methyl)phenyl)acrylate]
in vitro effect (Ustilaginoidea virens): particularly effective | inhibition at 0.3 µg/mL (Ustilaginoidea virens; Ustilaginoidea virens, 0.3 mg/L, read-out: Inhibition rate (%)): 74.8% | inhibition at 3 µg/mL (Ustilaginoidea virens; Ustilaginoidea virens, 3 mg/L, read-out: Inhibition rate (%)): 100% | inhibition at 30 µg/mL (Ustilaginoidea virens; Ustilaginoidea virens, 30 mg/L, read-out: Inhibition rate (%)): 100% | in vitro effect (Helminthosporum maydis): particularly effective | inhibition at 0.3 µg/mL (Helminthosporum maydis; 0.3 mg/L, read-out: Inhibition rate (%)): 86.1% | inhibition at 3 µg/mL (Helminthosporum maydis; 3 mg/L, read-out: Inhibition rate (%)): 100% | inhibition at 30 µg/mL (Helminthosporum maydis; 30 mg/L, read-out: Inhibition rate (%)): 100% | inhibition at 0.3 µg/mL (Bipolaris sorokiniana; 0.3 mg/L): 18.8% | inhibition at 3 µg/mL (Bipolaris sorokiniana; 3 mg/L): 40.6% | inhibition at 30 µg/mL (Bipolaris sorokiniana; 30 mg/L): 43.8% | Disease index (melon powdery mildew; [7]): 8.80 | Efficacy (%) (melon powdery mildew; [7]): 27.16% | Disease index (melon powdery mildew; [8]): 13.44 | Efficacy (%) (melon powdery mildew; [8]): 61.65% | Disease index (melon powdery mildew; [9]): 40.33 | Efficacy (%) (melon powdery mildew; [9]): 29.55% | Disease index (melon powdery mildew; [10]): 7.11 | Efficacy (%) (melon powdery mildew; [10]): 34.38% | Disease index (melon powdery mildew; [11]): 13.63 | Efficacy (%) (melon powdery mildew; [11]): 67.15% | Disease index (melon powdery mildew; [12]): 31.50 | Efficacy (%) (melon powdery mildew; [12]): 47.00% | Disease index (melon powdery mildew; [13]): 7.92 | Efficacy (%) (melon powdery mildew; [13]): 35.77% | Disease index (melon powdery mildew; [14]): 10.88 | Efficacy (%) (melon powdery mildew; [14]): 75.54% | Disease index (melon powdery mildew; [15]): 30.42 | Efficacy (%) (melon powdery mildew; [15]): 54.57% | Disease index (melon powdery mildew; [16]): 6.29 | Efficacy (%) (melon powdery mildew; [16]): 39.15% | Disease index (melon powdery mildew; [17]): 4.52 | Efficacy (%) (melon powdery mildew; [17]): 86.22% | Disease index (melon powdery mildew; [18]): 19.45 | Efficacy (%) (melon powdery mildew; [18]): 63.47% | inhibition at 0.3 µg/mL ([1]; 0.3 mg/L): 42.7% | inhibition at 3 µg/mL ([1]; 3 mg/L): 62.1% | inhibition at 30 µg/mL ([1]; 30 mg/L): 68.9% | prevention and treatment effect [2]: good prevention and treatment effect | Disease index ([2]; 100 mg/L): 6.11 | Efficacy (%) ([2]; 100 mg/L): 85.00% | Disease index ([2]; 500 mg/L): 4.44 | Efficacy (%) ([2]; 500 mg/L): 89.10% | EC50 [3]: 7.13 µg/mL | inhibition at 0.1 µg/mL [3, 19]: 10.1% | inhibition at 2 µg/mL ([3]; 2 mg/L, read-out: Inhibition rate (%)): 22.3% | inhibition at 5 µg/mL [3, 20]: 42.1% | inhibition at 15 µg/mL [3, 21]: 61.3% | inhibition at 25 µg/mL [3, 22]: 83.5% | EC50 [4]: 3.7 µg/mL | inhibition at 0.5 µg/mL [4, 23]: 14.6% | inhibition at 1 µg/mL [4, 24]: 31.7% | inhibition at 5 µg/mL [4, 20]: 51.6% | inhibition at 10 µg/mL [4, 25]: 65.8% | inhibition at 20 µg/mL [4, 26]: 84% | EC50 (Rhizopus sp.): 4.18 µg/mL | inhibition at 1 µg/mL (Rhizopus sp.; [24]): 18.4% | inhibition at 5 µg/mL (Rhizopus sp.; [20]): 53.1% | inhibition at 10 µg/mL (Rhizopus sp.; [25]): 69.3% | inhibition at 15 µg/mL (Rhizopus sp.; [21]): 83.6% | inhibition at 20 µg/mL (Rhizopus sp.; [26]): 88.5% | EC50 [5]: 4.84 µg/mL | inhibition at 1 µg/mL [5, 24]: 6.77% | inhibition at 2.5 µg/mL ([5]; 2.5 mg/L, read-out: Inhibition rate (%)): 28.3% | inhibition at 5 µg/mL [5, 20]: 55% | inhibition at 10 µg/mL [5, 25]: 72.1% | inhibition at 20 µg/mL [5, 26]: 84.9% | EC50 (B. cinerea): 1 µg/mL | inhibition at 0.1 µg/mL (B. cinerea; [19]): 12.8% | inhibition at 0.5 µg/mL (B. cinerea; [23]): 35.1% | inhibition at 1 µg/mL (B. cinerea; [24]): 54.5% | inhibition at 5 µg/mL (B. cinerea; [20]): 73.3% | inhibition at 10 µg/mL (B. cinerea; [25]): 88.1% | EC50 (Diplodia natalensis): 1.7 µg/mL | inhibition at 0.1 µg/mL (Diplodia natalensis; [19]): 20.7% | inhibition at 1 µg/mL (Diplodia natalensis; [24]): 40.2% | inhibition at 5 µg/mL (Diplodia natalensis; [20]): 60.7% | inhibition at 10 µg/mL (Diplodia natalensis; [25]): 73.7% | inhibition at 20 µg/mL (Diplodia natalensis; [26]): 82.3% | EC50 (Banana Fusarium wilt): 9.22 µg/mL | inhibition at 1 µg/mL (Banana Fusarium wilt; [24]): 13.5% | inhibition at 5 µg/mL (Banana Fusarium wilt; [20]): 30.2% | inhibition at 10 µg/mL (Banana Fusarium wilt; [25]): 60.5% | inhibition at 25 µg/mL (Banana Fusarium wilt; [22]): 67.6% | inhibition at 50 µg/mL (Banana Fusarium wilt; 50 mg/L, read-out: Inhibition rate (%)): 80.4% | Micronucleus Test of Mice Polychromatic Erythrocytes [6]: Negative | in vitro effect (Diaporthe medusae): particularly effective | inhibition at 0.3 µg/mL (Diaporthe medusae; Diaporthe, 0.3 mg/L, read-out: Inhibition rate (%)): 55.3% | inhibition at 3 µg/mL (Diaporthe medusae; Diaporthe, 3 mg/L, read-out: Inhibition rate (%)): 80.1% | inhibition at 30 µg/mL (Diaporthe medusae; Diaporthe, 30 mg/L, read-out: Inhibition rate (%)): 87.2% | inhibition at 0.3 µg/mL (Fusarium oxysporum; 0.3 mg/L): 29.4% | inhibition at 3 µg/mL (Fusarium oxysporum; 3 mg/L): 36.1% | inhibition at 30 µg/mL (Fusarium oxysporum; 30 mg/L): 43.7%
